# Source: US20050153937A1, “Desensitization of compliment activation using monocyte/macrophage inhibitory compounds” (priority 2003, published 2005)
# System: complement activation-related acute hypersensitivity (CARPA)
# Conditions: pig, in vivo
# From the text: Adolescent (2040 kg) Yorkshire pigs of both genders are sedated with i.m. ketamine (Ketalar) and then anesthetized with halothane or isoflurane via nose cone. The trachea is intubated to allow mechanical ventilation with an anesthesia machine, using 1-2.5% halothane or isoflurane. A pulmonary artery catheter equipped with thermodilution-based continuous cardiac output detector is advanced via the right internal jugular vein through the right atrium into the pulmonary artery to measure pulmonary arterial pressure (PAP) and cardiac output (CO). Another catheter is inserted into the right femoral artery and advanced into the proximal aorta for blood sampling and to measure systemic arterial pressure (SAP). Blood pressure values and 2-3 leads of the electrocardiogram (ECG) are obtained continually.
# The CARPA-activating compounds used in the following experiments are i) Doxil containing 2 mg/ml doxorubicin HCl and 16 mg/ml lipid (phospholipid concentration: 13.3 mM, 150 μg doxorubicin/μmol phospholipid), ii) multilamellar vesicles (MLV) consisting of dimyristoyl phosphatidylcholine (DMPC), dimyristoyl phosphatidylglycerol (DMPG), and cholesterol at a 45:5:50 ratio, and iii) zymosan. […]
substance,measurement,setting,value
Zymosan,reactions to second series of CARPA-activator injections compared with first administration,,substantially identical
same,time until all physiologic and blood measures return to baseline after injection,iv,≤ 30 min
